From patent US10227323B2, “Glucosylceramide synthase inhibitors for the treatment of diseases” (BIOMARIN PHARMACEUTICAL INC., priority 2013, dated 2019)
Like-named read-outs stand apart in the source and are kept apart here.

Target: T1, GCS (Canis lupus familiaris, UniProt A0A8I3MXG6)
T1 sequence (A0A8I3MXG6 1-394): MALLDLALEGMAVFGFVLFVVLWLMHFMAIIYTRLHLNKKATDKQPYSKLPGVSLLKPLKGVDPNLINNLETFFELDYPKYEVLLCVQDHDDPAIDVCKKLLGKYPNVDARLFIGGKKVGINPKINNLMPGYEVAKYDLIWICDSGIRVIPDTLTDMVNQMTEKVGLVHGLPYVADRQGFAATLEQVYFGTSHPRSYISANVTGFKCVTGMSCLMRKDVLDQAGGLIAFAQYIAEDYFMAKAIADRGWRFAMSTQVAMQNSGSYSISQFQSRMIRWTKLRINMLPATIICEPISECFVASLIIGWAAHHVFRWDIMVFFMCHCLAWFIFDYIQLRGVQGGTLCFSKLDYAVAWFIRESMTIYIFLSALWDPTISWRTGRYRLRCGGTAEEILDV
Test: Assay 1: GCS Enzymatic Assay (MDCK cell lysate, C6-NBD-Ceramide, LC/MS)
Assay type: biochemical, canine
Conditions: for IC50: read-out: IC50 (nM) generated from Assay 1
Description: This assay was modified based on the study by Larsen et al. (J. Lipid Res. 2011, 53, 282). Madin-Darby canine kidney (MDCK) cell lysate was prepared using M-PER Mammalian Protein Extraction Reagent (Thermal Scientific) in the presence of a protease inhibitor cocktail (Roche). Protein concentration was determined using BCA assay kit (Pierce). Sixty micrograms of MDCK cell lysate was incubated with various concentrations of a compound described herein from 0.001 μM-10 μM, respectively, in 100 mM Tris buffer (pH 7.5) containing 10 mM MgCl2, 1 mM dithiothreitol, 1 mM EGTA, 2 mM NAD, 100 μM UDP-glucose, 10 μM C6-NBD-Ceramide (Matreya LLC, Pleasant Gap, Pa.), 35 μM dioleoylphosphatidylcholine and 5 μM sulfatide (Sigma) in a final reaction volume of 100 μL at 37° C. for 1 hour. 0.1% DMSO was used as mock treatment or control. The reaction was terminated by adding 100 μL acetonitrile solution and subjected to LC/MS analysis.
The quantitative analysis of NBD-Ceramide and glucosylceramide was performed on a Shimadzu ultra-fast liquid chromatography (Shimadzu, Japan) coupled with API 4000 triple quadrupole mass spectrometer (Applied Biosystems, Concord, Ontario, Canada). Sample separation was conducted on a Waters Xbridge™ BEH130 C18, 100 mm×4.6 mm i.d, 3.5 μm (Milford, Mass., USA). The mobile phase consisted of water and acetonitrile supplemented with 0.1% formic acid (v/v). The flow rate was 1.0 mL/min. The initial mobile phase was 20% acetonitrile and was ramped in a linear fashion to 50% acetonitrile in 0.4 min. From 0.4 to 1.5 min, the gradient was ramped to 98% acetonitrile, and then was held at […] until 8.0 min. Acetonitrile was reset to 20% in 1.5 min, and maintained until 10.0 min. The total run time was 10.0 min. The MS/MS detection was performed in ESI positive mode. The mass transition of NBD-Ceramide was m/z 576.36→558.40 under the collision energy of 15 V, and the mass transition of glucosylceramide was m/z 738.35→558.40 under 21V collision energy. The cell lysate was diluted with equal volume of acetonitrile. Aliquots of 50 μL diluted samples were added to 1.5 mL tubes, and 100 μL of acetonitrile containing internal standard (100 ng/mL tolbutamide) were added for protein precipitation. The mixture were vortexed and then centrifuged at 13000 rpm for 10 min. 70 μL of supernatant were mixed with 140 μL of H2O and the final solution were injected for LC/MS/MS analysis and IC50's and/or percent inhibitions calculated.

[1] = Table 1, values marked *, MDCK cell lysate

Work on `O=C(N[C@H](CN1CCCC1)[C@H](O)c1ccc(OC2CCOC2)c(Cl)c1)C(F)(F)c1cc2cc(Cl)ccc2o1` (single isomer, unassigned) [Compound 47] yielded an IC50 (Table 1, MDCK cell lysate) of under 50 nM.

For `CC(C)Oc1ccc(C(O)[C@@H](CN2CCCC2)NC(=O)C(F)(F)c2cc3cc(Cl)ccc3o2)cn1` (stereo in doubt) [Compound 80, 2-(5-chlorobenzofuran-2-yl)-2,2-difluoro-N-((1S,2R)-1-hydroxy-1-(6-isopropoxypyridin-3-yl)-3-(pyrrolidin-1-yl)propan-2-yl)acetamide], the IC50 (Table 2, data without asterisk) was 50 to 5000 nM.

For `CC(C)Oc1cc(C(O)[C@@H](CN2CCCC2)NC(=O)C(F)(F)c2cc3cc(Cl)ccc3o2)ccn1` (stereo in doubt) [Compound 103, 2-(5-chlorobenzofuran-2-yl)-2,2-difluoro-N-((1S,2R)-1-hydroxy-1-(2-isopropoxypyridin-4-yl)-3-(pyrrolidin-1-yl)propan-2-yl)acetamide], the “% inhibition generated from Assay 1” value (Table 2, data marked by *) was “B* (the compound had a % inhibition of greater than or equal to about 3% but less than about 50%)”.

With `O=C(N[C@H](CN1CCC1)C(O)c1cc(F)c2c(c1)OCCO2)C(F)(F)CCc1ccc2ccccc2c1` (stereo in doubt) [Compound 113, N-((1S,2R)-3-(azetidin-1-yl)-1-(8-fluoro-2,3-dihydrobenzo[b][1,4]dioxin-6-yl)-1-hydroxypropan-2-yl)-2,2-difluoro-4-(naphthalen-2-yl)butanamide] the “% inhibition generated from Assay 1” value (Table 2, data marked by *) was “B* (the compound had a % inhibition of greater than or equal to about 3% but less than about 50%)”.

For `CC1(C)CCc2cc(C(O)[C@@H](CN3CCCC3)NC(=O)C(F)(F)CCc3ccc4ccccc4c3)ccc2O1` (stereo in doubt) [Compound 117, N-((1S,2R)-1-(2,2-dimethylchroman-6-yl)-1-hydroxy-3-(pyrrolidin-1-yl)propan-2-yl)-2,2-difluoro-4-(naphthalen-2-yl)butanamide], the “% inhibition generated from Assay 1” value (Table 2, data marked by *) was “B* (the compound had a % inhibition of greater than or equal to about 3% but less than about 50%)”.

With `O=C(N[C@H](CN1CCCC1)C(O)c1ccc(N2CCOCC2)c(Cl)c1)C(F)(F)CCc1ccc2ccccc2c1` (stereo in doubt) [Compound 124, N-((1S,2R)-1-(3-chloro-4-morpholinophenyl)-1-hydroxy-3-(pyrrolidin-1-yl)propan-2-yl)-2,2-difluoro-4-(naphthalen-2-yl)butanamide] the “% inhibition generated from Assay 1” value (Table 2, data marked by *) was “B* (the compound had a % inhibition of greater than or equal to about 3% but less than about 50%)”.

Work on `O=C(N[C@H](CN1CCCC1)[C@H](O)c1ccc2c(c1)OCCO2)C(F)(F)C1Cc2ccccc2C1` [Compound 1, 2-(2,3-dihydro-1H-inden-2-yl)-N-((1R,2R)-1-(2,3-dihydrobenzo[b][1,4]dioxin-6-yl)-1-hydroxy-3-(pyrrolidin-1-yl)propan-2-yl)-2,2-difluoroacetamide] yielded an IC50 (Table 1, MDCK cell lysate) of under 50 nM.

`O=C(N[C@H](CN1CCCC1)[C@H](O)c1ccc2c(c1)OCCO2)C(F)(F)c1ccc2c(c1)OCCO2` [Compound 2, 2-(2,3-dihydrobenzo[b][1,4]dioxin-6-yl)-N-((1R,2R)-1-(2,3-dihydrobenzo[b][1,4]dioxin-6-yl)-1-hydroxy-3-(pyrrolidin-1-yl)propan-2-yl)-2,2-difluoroacetamide] showed an IC50 (Table 1, MDCK cell lysate) of 50 to 5000 nM.

`O=C(N[C@H](CN1CCCC1)[C@H](O)c1ccc2c(c1)OCCO2)C(F)(F)c1cc2cc(Cl)ccc2s1` [Compound 3, 2-(5-chlorobenzo[b]thiophen-2-yl)-N-((1R,2R)-1-(2,3-dihydrobenzo[b][1,4]dioxin-6-yl)-1-hydroxy-3-(pyrrolidin-1-yl)propan-2-yl)-2,2-difluoroacetamide] showed an IC50 (Table 1, MDCK cell lysate) of under 50 nM.

In the case of `COc1ccc(C(O)[C@@H](CN2CCCC2)NC(=O)C(F)(F)c2cc3cc(Cl)ccc3s2)cc1F` (stereo partly drawn) [Compound 4, 2-(5-chlorobenzo[b]thiophen-2-yl)-2,2-difluoro-N-((2R)-1-(3-fluoro-4-methoxyphenyl)-1-hydroxy-3-(pyrrolidin-1-yl)propan-2-yl)acetamide], the “% inhibition generated from Assay 1” value [1] is reported as “B* (the compound had a % inhibition of greater than or equal to about 3% but less than about 50%)”.

`COc1ccc([C@H](O)[C@@H](CN2CCCC2)NC(=O)C(F)(F)C2Cc3ccccc3C2)cc1F` [Compound 5, 2-(2,3-dihydro-1H-inden-2-yl)-2,2-difluoro-N-((1S,2R)-1-(3-fluoro-4-methoxyphenyl)-1-hydroxy-3-(pyrrolidin-1-yl)propan-2-yl)acetamide] was tested, and the IC50 (Table 1, MDCK cell lysate) was under 50 nM.

With `COc1ccc(C(O)[C@@H](CN2CCCC2)NC(=O)C(F)(F)C2Cc3ccccc3C2)cc1F` (stereo partly drawn) [Compound 5A, 2-(2,3-dihydro-1H-inden-2-yl)-2,2-difluoro-N-((2R)-1-(3-fluoro-4-methoxyphenyl)-1-hydroxy-3-(pyrrolidin-1-yl)propan-2-yl)acetamide] the IC50 (Table 1, MDCK cell lysate) was 50 to 5000 nM.

For `COc1ccc([C@@H](O)[C@@H](CN2CCCC2)NC(=O)C(F)(F)C2Cc3ccccc3C2)cc1F` [Compound 5B, 2-(2,3-dihydro-1H-inden-2-yl)-2,2-difluoro-N-((1R,2R)-1-(3-fluoro-4-methoxyphenyl)-1-hydroxy-3-(pyrrolidin-1-yl)propan-2-yl)acetamide], the “% inhibition generated from Assay 1” value [1] was “B* (the compound had a % inhibition of greater than or equal to about 3% but less than about 50%)”.

`O=C(N[C@H](CN1CCCC1)[C@H](O)c1ccc2c(c1)OCCO2)C(F)(F)c1nc2cc(Cl)ccc2s1` [Compound 6, 2-(5-chlorobenzo[d]thiazol-2-yl)-N-((1R,2R)-1-(2,3-dihydrobenzo[b][1,4]dioxin-6-yl)-1-hydroxy-3-(pyrrolidin-1-yl)propan-2-yl)-2,2-difluoroacetamide] was tested, and the “% inhibition generated from Assay 1” value [1] was “B* (the compound had a % inhibition of greater than or equal to about 3% but less than about 50%)”.

For `O=C(N[C@H](CN1CCCC1)[C@H](O)c1ccc2c(c1)OCCO2)C(F)(F)C1Cc2cc(Cl)c(Cl)cc2C1` [Compound 7, 2-(5,6-dichloro-2,3-dihydro-1H-inden-2-yl)-N-((1R,2R)-1-(2,3-dihydrobenzo[b][1,4]dioxin-6-yl)-1-hydroxy-3-(pyrrolidin-1-yl)propan-2-yl)-2,2-difluoroacetamide], the IC50 (Table 1, MDCK cell lysate) was under 50 nM.

In the case of `COc1ccc(F)c([C@@H](O)[C@@H](CN2CCCC2)NC(=O)C(F)(F)C2Cc3ccccc3C2)c1` [Compound 8, 2-(2,3-dihydro-1H-inden-2-yl)-2,2-difluoro-N-((1R,2R)-1-(2-fluoro-5-methoxyphenyl)-1-hydroxy-3-(pyrrolidin-1-yl)propan-2-yl)acetamide], the “% inhibition generated from Assay 1” value [1] is reported as “B* (the compound had a % inhibition of greater than or equal to about 3% but less than about 50%)”.

For `COc1ccc(F)c([C@H](O)[C@@H](CN2CCCC2)NC(=O)C(F)(F)C2Cc3ccccc3C2)c1` [Compound 8J, 2-(2,3-dihydro-1H-inden-2-yl)-2,2-difluoro-N-((1S,2R)-1-(2-fluoro-5-methoxyphenyl)-1-hydroxy-3-(pyrrolidin-1-yl)propan-2-yl)acetamide], the “% inhibition generated from Assay 1” value [1] was “B* (the compound had a % inhibition of greater than or equal to about 3% but less than about 50%)”.

In the case of `Cn1c(C(F)(F)C(=O)N[C@H](CN2CCCC2)[C@H](O)c2ccc3c(c2)OCCO3)nc2cc(Cl)ccc21` [Compound 10, 2-(5-chloro-1-methyl-1H-benzo[d]imidazol-2-yl)-N-((1R,2R)-1-(2,3-dihydrobenzo[b][1,4]dioxin-6-yl)-1-hydroxy-3-(pyrrolidin-1-yl)propan-2-yl)-2,2-difluoroacetamide], the “% inhibition generated from Assay 1” value [1] is reported as “B* (the compound had a % inhibition of greater than or equal to about 3% but less than about 50%)”.
